How the values were obtained:
[1] = target: Beta-lactamase (Acinetobacter baumannii) (UniProt Q8RLA6); assay: Inhibition of beta-lactamase in extended-spectrum b-lactamase producing Acinetobacter baumannii S-8 assessed as potentiation of cefpirome-induced antibacterial activity by measuring cefpirome MIC at 4 to 8 ug/ml incubated for 16 to 20 hrs by CLSI method
[2] = target: Beta-lactamase (Acinetobacter baumannii) (UniProt Q8RLA6); assay: Inhibition of beta-lactamase in extended-spectrum b-lactamase producing Acinetobacter baumannii S-15 assessed as potentiation of cefepime-induced antibacterial activity by measuring cefepime MIC at 4 to 8 ug/ml incubated for 16 to 20 hrs by CLSI method
[3] = target: Beta-lactamase (Acinetobacter baumannii) (UniProt Q8RLA6); assay: Inhibition of beta-lactamase in extended-spectrum b-lactamase producing Acinetobacter baumannii S-3 assessed as potentiation of cefepime-induced antibacterial activity by measuring cefepime MIC at 4 to 8 ug/ml incubated for 16 to 20 hrs by CLSI method
[4] = target: Beta-lactamase (Acinetobacter baumannii) (UniProt Q8RLA6); assay: Inhibition of beta-lactamase in extended-spectrum b-lactamase producing Acinetobacter baumannii S-4 assessed as potentiation of cefepime-induced antibacterial activity by measuring cefepime MIC at 4 to 8 ug/ml incubated for 16 to 20 hrs by CLSI method
[5] = target: Beta-lactamase (Acinetobacter baumannii) (UniProt Q8RLA6); assay: Inhibition of beta-lactamase in extended-spectrum b-lactamase producing Acinetobacter baumannii NCTC 13304 assessed as potentiation of cefepime-induced antibacterial activity by measuring cefepime MIC at 4 to 8 ug/ml incubated for 16 to 20 hrs by CLSI method
[6] = target: Beta-lactamase (Acinetobacter baumannii) (UniProt Q8RLA6); assay: Inhibition of beta-lactamase in extended-spectrum b-lactamase producing Acinetobacter baumannii NCTC 13305 assessed as potentiation of cefpirome-induced antibacterial activity by measuring cefpirome MIC at 4 to 8 ug/ml incubated for 16 to 20 hrs by CLSI method
[7] = target: Beta-lactamase (Acinetobacter baumannii) (UniProt Q8RLA6); assay: Inhibition of beta-lactamase in extended-spectrum b-lactamase producing Acinetobacter baumannii S-10 assessed as potentiation of cefpirome-induced antibacterial activity by measuring cefpirome MIC at 4 to 8 ug/ml incubated for 16 to 20 hrs by CLSI method
[8] = target: Beta-lactamase (Acinetobacter baumannii) (UniProt Q8RLA6); assay: Inhibition of beta-lactamase in extended-spectrum b-lactamase producing Acinetobacter baumannii NCTC 13301 assessed as potentiation of cefepime-induced antibacterial activity by measuring cefepime MIC at 4 to 8 ug/ml incubated for 16 to 20 hrs by CLSI method
[9] = target: Beta-lactamase (Acinetobacter baumannii) (UniProt Q8RLA6); assay: Inhibition of beta-lactamase in extended-spectrum b-lactamase producing Acinetobacter baumannii S-8 assessed as potentiation of cefepime-induced antibacterial activity by measuring cefepime MIC at 4 to 8 ug/ml incubated for 16 to 20 hrs by CLSI method
[10] = target: Beta-lactamase (Acinetobacter baumannii) (UniProt Q8RLA6); assay: Inhibition of beta-lactamase in extended-spectrum b-lactamase producing Acinetobacter baumannii S-15 assessed as potentiation of cefpirome-induced antibacterial activity by measuring cefpirome MIC at 4 to 8 ug/ml incubated for 16 to 20 hrs by CLSI method
[11] = target: Beta-lactamase (Acinetobacter baumannii) (UniProt Q8RLA6); assay: Inhibition of beta-lactamase in extended-spectrum b-lactamase producing Acinetobacter baumannii NCTC 13304 assessed as potentiation of cefpirome-induced antibacterial activity by measuring cefpirome MIC at 4 to 8 ug/ml incubated for 16 to 20 hrs by CLSI method
[12] = target: Beta-lactamase (Acinetobacter baumannii) (UniProt Q8RLA6); assay: Inhibition of beta-lactamase in extended-spectrum b-lactamase producing Acinetobacter baumannii S-10 assessed as potentiation of cefepime-induced antibacterial activity by measuring cefepime MIC at 4 to 8 ug/ml incubated for 16 to 20 hrs by CLSI method
[13] = target: Beta-lactamase (Acinetobacter baumannii) (UniProt Q8RLA6); assay: Inhibition of beta-lactamase in extended-spectrum b-lactamase producing Acinetobacter baumannii NCTC 13305 assessed as potentiation of cefepime-induced antibacterial activity by measuring cefepime MIC at 4 to 8 ug/ml incubated for 16 to 20 hrs by CLSI method
[14] = target: Beta-lactamase (Acinetobacter baumannii) (UniProt Q8RLA6); assay: Inhibition of beta-lactamase in extended-spectrum b-lactamase producing Acinetobacter baumannii S-4 assessed as potentiation of cefpirome-induced antibacterial activity by measuring cefpirome MIC at 4 to 8 ug/ml incubated for 16 to 20 hrs by CLSI method
[15] = target: Beta-lactamase (Acinetobacter baumannii) (UniProt Q8RLA6); assay: Inhibition of beta-lactamase in extended-spectrum b-lactamase producing Acinetobacter baumannii NCTC 13301 assessed as potentiation of cefpirome-induced antibacterial activity by measuring cefpirome MIC at 4 to 8 ug/ml incubated for 16 to 20 hrs by CLSI method
[16] = target: Beta-lactamase (Acinetobacter baumannii) (UniProt Q8RLA6); assay: Inhibition of beta-lactamase in extended-spectrum b-lactamase producing Acinetobacter baumannii S-3 assessed as potentiation of cefpirome-induced antibacterial activity by measuring cefpirome MIC at 4 to 8 ug/ml incubated for 16 to 20 hrs by CLSI method

Beta-lactamase (Acinetobacter baumannii), sequence (Q8RLA6 as listed by the source): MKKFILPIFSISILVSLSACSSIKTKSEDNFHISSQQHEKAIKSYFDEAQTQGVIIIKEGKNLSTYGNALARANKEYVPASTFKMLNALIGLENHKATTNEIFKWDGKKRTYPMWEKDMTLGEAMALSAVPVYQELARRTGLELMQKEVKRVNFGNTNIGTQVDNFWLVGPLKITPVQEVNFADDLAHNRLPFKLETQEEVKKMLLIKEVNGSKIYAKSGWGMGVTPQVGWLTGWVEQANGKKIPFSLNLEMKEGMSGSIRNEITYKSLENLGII

CC1(C)[C@H](C(=O)O)N2C(=O)C[C@H]2S1(=O)=O
MIC [1]: 32 µg/mL
MIC [2]: > 32 µg/mL
MIC [3]: > 32 µg/mL
MIC [4]: > 32 µg/mL
MIC [5]: > 32 µg/mL
MIC [6]: 8 µg/mL
MIC [7]: > 32 µg/mL
MIC [8]: > 32 µg/mL
MIC [9]: 32 µg/mL
MIC [10]: 32 µg/mL
MIC [11]: 32 µg/mL
MIC [12]: > 32 µg/mL
MIC [13]: 4 µg/mL
MIC [14]: > 32 µg/mL
MIC [15]: > 32 µg/mL
MIC [16]: > 32 µg/mL

Reference: ChEMBL document CHEMBL3882388, “Pharmaceutical Compositions Comprising Beta-Lactam Antibiotic, Sulbactam and Beta-Lactamase Inhibitor” (2014)
